The first series has as its system PDCD1. As to the kind of experiment: NGS editing of PDCD1 by dgRNA in HEK cells stably expressing Cas9.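 Note: dgRNA lipofected into Cas9-expressing HEK cells, lysed after 24 h, target amplicon sequenced, editing = reads carrying insertions or deletions as percent of all reads including wild type.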 In kind it is cell-based, human. The following applies: at least 3 experiments.
On to “CR000824: dgRNA targeting domain to PDCD1 (guide UCAGGCGGAGGUGAGCGGAA; targeting domain within dual guide RNA, chemistry not given here, further chemistry not given here; listed as Homo sapiens)”, for which the “HEK (NGS) % Editing Mean” value is on record as 54%. As for “CR000825: dgRNA targeting domain to PDCD1 (guide CUCAGGCGGAGGUGAGCGGA; targeting domain within dual guide RNA, chemistry not given here, further chemistry not given here; listed as Homo sapiens)”, the “HEK (NGS) % Editing Mean” value was found to be 46%. With “CR000826: dgRNA targeting domain to PDCD1 (guide ACUGCUCAGGCGGAGGUGAG; targeting domain within dual guide RNA, chemistry not given here, further chemistry not given here; listed as Homo sapiens)”, the “HEK (NGS) % Editing Mean” value was found to be 70%.

With “CR000827: dgRNA targeting domain to PDCD1 (guide GCUCACCUCCGCCUGAGCAG; targeting domain within dual guide RNA, chemistry not given here, further chemistry not given here; listed as Homo sapiens)”, the “HEK (NGS) % Editing Mean” value stood at 39%. As for “CR000828: dgRNA targeting domain to PDCD1 (guide CUUCUCCACUGCUCAGGCGG; targeting domain within dual guide RNA, chemistry not given here, further chemistry not given here; listed as Homo sapiens)”, the “HEK (NGS) % Editing Mean” value was 69%. Same read-out and setting: the figure for “CR000829: dgRNA targeting domain to PDCD1 (guide CAGUGGAGAAGGCGGCACUC; targeting domain within dual guide RNA, chemistry not given here, further chemistry not given here; listed as Homo sapiens)” is 68%. Turning to “CR000830: dgRNA targeting domain to PDCD1 (guide UGGAGAAGGCGGCACUCUGG; targeting domain within dual guide RNA, chemistry not given here, further chemistry not given here; listed as Homo sapiens)”, the “HEK (NGS) % Editing Mean” value is 57%.

Regarding “CR000831: dgRNA targeting domain to PDCD1 (guide GGAGAAGGCGGCACUCUGGU; targeting domain within dual guide RNA, chemistry not given here, further chemistry not given here; listed as Homo sapiens)”, the “HEK (NGS) % Editing Mean” value was found to be 66%. With “CR000832: dgRNA targeting domain to PDCD1 (guide GAGAAGGCGGCACUCUGGUG; targeting domain within dual guide RNA, chemistry not given here, further chemistry not given here; listed as Homo sapiens)”, the “HEK (NGS) % Editing Mean” value is given as 49%.

In the case of “CR000833: dgRNA targeting domain to PDCD1 (guide AGGCGCCCUGGCCAGUCGUC; targeting domain within dual guide RNA, chemistry not given here, further chemistry not given here; listed as Homo sapiens)”, the “HEK (NGS) % Editing Mean” value is 34%.

Regarding “CR000835: dgRNA targeting domain to PDCD1 (guide GCCCUGGCCAGUCGUCUGGG; targeting domain within dual guide RNA, chemistry not given here, further chemistry not given here; listed as Homo sapiens)”, the “HEK (NGS) % Editing Mean” value came out at 69%. For the substance “CR000836: dgRNA targeting domain to PDCD1 (guide CACCGCCCAGACGACUGGCC; targeting domain within dual guide RNA, chemistry not given here, further chemistry not given here; listed as Homo sapiens)”, the “HEK (NGS) % Editing Mean” value stood at 5%. Consider “CR000840: dgRNA targeting domain to PDCD1 (guide GGGCGGUGCUACAACUGGGC; targeting domain within dual guide RNA, chemistry not given here, further chemistry not given here; listed as Homo sapiens)”, for which the “HEK (NGS) % Editing Mean” value worked out at 59%. On to “CR000841: dgRNA targeting domain to PDCD1 (guide CGGUGCUACAACUGGGCUGG; targeting domain within dual guide RNA, chemistry not given here, further chemistry not given here; listed as Homo sapiens)”, for which the “HEK (NGS) % Editing Mean” value is reported as 19%. Regarding “CR000842: dgRNA targeting domain to PDCD1 (guide CACCUACCUAAGAACCAUCC; targeting domain within dual guide RNA, chemistry not given here, further chemistry not given here; listed as Homo sapiens)”, the “HEK (NGS) % Editing Mean” value amounted to 40%.

As to “CR000843: dgRNA targeting domain to PDCD1 (guide GAGAAGGUGGGGGGGUUCCA; targeting domain within dual guide RNA, chemistry not given here, further chemistry not given here; listed as Homo sapiens)”, the “HEK (NGS) % Editing Mean” value came out at 8%. On to “CR000844: dgRNA targeting domain to PDCD1 (guide CGGUCACCACGAGCAGGGCU; targeting domain within dual guide RNA, chemistry not given here, further chemistry not given here; listed as Homo sapiens)”, for which the “HEK (NGS) % Editing Mean” value was found to be 25%. As for “CR000845: dgRNA targeting domain to PDCD1 (guide UCGGUCACCACGAGCAGGGC; targeting domain within dual guide RNA, chemistry not given here, further chemistry not given here; listed as Homo sapiens)”, the “HEK (NGS) % Editing Mean” value is 21%. In the case of “CR000846: dgRNA targeting domain to PDCD1 (guide GCCCUGCUCGUGGUGACCGA; targeting domain within dual guide RNA, chemistry not given here, further chemistry not given here; listed as Homo sapiens)”, the “HEK (NGS) % Editing Mean” value is given as 46%. The same measure, in the same setting: the figure for “CR000847: dgRNA targeting domain to PDCD1 (guide CCCUUCGGUCACCACGAGCA; targeting domain within dual guide RNA, chemistry not given here, further chemistry not given here; listed as Homo sapiens)” is 77%; for “CR000848: dgRNA targeting domain to PDCD1 (guide CCCUGCUCGUGGUGACCGAA; targeting domain within dual guide RNA, chemistry not given here, further chemistry not given here; listed as Homo sapiens)” it is 65%. As to “CR000849: dgRNA targeting domain to PDCD1 (guide CCCCUUCGGUCACCACGAGC; targeting domain within dual guide RNA, chemistry not given here, further chemistry not given here; listed as Homo sapiens)”, the “HEK (NGS) % Editing Mean” value is given as 29%. Same read-out and setting: the figure for “CR000850: gRNA targeting domain to PDCD1, CCUGCUCGUGGUGACCGAAG (SEQ ID NO: 5746) (targeting domain within guide RNA, chemistry not given here, further chemistry not given here; listed as Homo sapiens)” is 55%. On the same count and under the same terms, the figure for “CR000851: dgRNA targeting domain to PDCD1 (guide GAAGGUGGCGUUGUCCCCUU; targeting domain within dual guide RNA, chemistry not given here, further chemistry not given here; listed as Homo sapiens)” is 4%.

For another series, the system named is CIITA. As to the kind of experiment: NGS editing and frameshift edit of CIITA by dgRNA in HEK293 cells expressing Cas9. Type of series: cell-based, human. The settings on record: HEK293 cells stably expressing Cas9, dgRNA to CIITA, N = 3.
Method: Editing of CIITA with dgRNAs targeted to the CIITA gene were assayed in HEK293 cells engineered to express Cas9, as described above in Example 1.
“CR003022 (guide AGACUGCCAGUCACCACAGU; targeting domain within dual guide RNA, chemistry not given here, further chemistry not given here; listed as Homo sapiens)”: the “Avg. % Edit” value is on record as 23.73%. For “CR003023 (guide GAGACUGCCAGUCACCACAG; targeting domain within dual guide RNA, chemistry not given here, further chemistry not given here; listed as Homo sapiens)”, the “Avg. % Edit” value was determined as 29.38%. As for “CR003024 (guide GGUGACUGGCAGUCUCCUAG; targeting domain within dual guide RNA, chemistry not given here, further chemistry not given here; listed as Homo sapiens)”, the “Avg. % Edit” value is on record as 20.40%.

As to “CR003025 (guide GUGACUGGCAGUCUCCUAGU; targeting domain within dual guide RNA, chemistry not given here, further chemistry not given here; listed as Homo sapiens)”, the “Avg. % Edit” value turned out to be 24.52%. On to “CR003026 (guide AGUCGCUCACUGGUCCCACU; targeting domain within dual guide RNA, chemistry not given here, further chemistry not given here; listed as Homo sapiens)”, for which the “Avg. % Edit” value is reported as 29.63%.

The series is the same for the next values; noted with them: frameshift edit, HEK293 cells stably expressing Cas9, dgRNA to CIITA.
Regarding “CR003022 (guide AGACUGCCAGUCACCACAGU; targeting domain within dual guide RNA, chemistry not given here, further chemistry not given here; listed as Homo sapiens)”, the “Avg. % FS” value was found to be 17.96%. Same read-out and setting: to “CR003023 (guide GAGACUGCCAGUCACCACAG; targeting domain within dual guide RNA, chemistry not given here, further chemistry not given here; listed as Homo sapiens)” belongs 16.83%; to “CR003024 (guide GGUGACUGGCAGUCUCCUAG; targeting domain within dual guide RNA, chemistry not given here, further chemistry not given here; listed as Homo sapiens)”, 16.33%. As for “CR003025 (guide GUGACUGGCAGUCUCCUAGU; targeting domain within dual guide RNA, chemistry not given here, further chemistry not given here; listed as Homo sapiens)”, the “Avg. % FS” value is 19.21%. For the substance “CR003026 (guide AGUCGCUCACUGGUCCCACU; targeting domain within dual guide RNA, chemistry not given here, further chemistry not given here; listed as Homo sapiens)”, the “Avg. % FS” value came to 20.05%.

The record behind these values is US12037583B2, “Compositions and methods for immunooncology” (Novartis AG, priority 2015, dated 2024).
